Measurements reported in the supplement of paper PMC11061612.

Key:
Test in all cases: combination Emax (second highest fraction inhibited in the dose matrix, 72 h); higher = more inhibition; extreme values may be limits of the assay
[1] = test system: ECC10 (Gastric Carcinoma)
Method in brief: (§1)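 Cell lines in DMEM/F12 or RPMI with 10% FBS were plated in 1536-well plates, held 24 hours at 37°C, 5% CO2, then given two-drug dose matrices for 72 hours (DMSO typically 0.2%). Viability was read by CellTiter-Glo 2.0 luminescence and scaled as inhibition from 0 (vehicle wells) to 1 (blank wells). Combination Emax is the second-highest inhibition in the matrix; Bliss excess is observed combination effect minus expected EA + EB − EA·EB, EA and EB being single-agent effects.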

[2] = test system: U-2-OS (Osteosarcoma)
Method in brief: as §1

[3] = test system: FU97 (Gastric Carcinoma)
Method in brief: as §1

[4] = test system: NCI-H2066 (Squamous Cell Lung Carcinoma)
Method in brief: as §1

[5] = test system: NCI-H2591 (Mesothelioma)
Method in brief: as §1

[6] = test system: KARPAS-422 (B-Cell Non-Hodgkin's Lymphoma)
Method in brief: as §1

[7] = test system: VCaP (Prostate Carcinoma)
Method in brief: as §1

[8] = test system: COLO-320-HSR (Colorectal Carcinoma)
Method in brief: as §1

[9] = test system: BICR22 (Oral Cavity Carcinoma)
Method in brief: as §1

[10] = test system: NCI-H64 (Small Cell Lung Carcinoma)
Method in brief: as §1

[11] = test system: CCK-81 (Colorectal Carcinoma)
Method in brief: as §1

[12] = test system: NCI-H1581 (Non-Small Cell Lung Carcinoma)
Method in brief: as §1

[13] = test system: PANC-10-05 (Pancreatic Carcinoma)
Method in brief: as §1

[14] = test system: NY (Osteosarcoma)
Method in brief: as §1

[15] = test system: HCC1954 (Breast Carcinoma)
Method in brief: as §1

[16] = test system: IGR-37 (Melanoma)
Method in brief: as §1

[17] = test system: ONS-76 (Other Solid Carcinomas)
Method in brief: as §1

[18] = test system: NCI-H1666 (Lung Adenocarcinoma)
Method in brief: as §1

[19] = test system: CAPAN-2 (Pancreatic Carcinoma)
Method in brief: as §1

[20] = test system: TT (Thyroid Gland Carcinoma)
Method in brief: as §1

## CS(=O)(=O)CCNCc1ccc(-c2ccc3ncnc(Nc4ccc(OCc5cccc(F)c5)c(Cl)c4)c3c2)o1 [Lapatinib] + NC1(c2ccc(-c3nc4ccn5c(=O)[nH]nc5c4cc3-c3ccccc3)cc2)CCC1 [MK-2206] (first compound max 10 µM, 7x7, partner max 10 µM)
[1]
  combination Emax: 0.972
[2]
  combination Emax: 0.257
[3]
  combination Emax: 0.795
[4]
  combination Emax: 0.659
[5]
  combination Emax: 0.418
[6]
  combination Emax: 0.986
[7]
  combination Emax: 0.478
[8]
  combination Emax: 0.925
[9]
  combination Emax: 0.93
[10]
  combination Emax: 0.533
[11]
  combination Emax: 0.985
[12]
  combination Emax: 0.462
[13]
  combination Emax: 0.613
[14]
  combination Emax: 0.246
[15]
  combination Emax: 0.939
[16]
  combination Emax: 0.901
[17]
  combination Emax: 0.783
[18]
  combination Emax: 0.898
[19]
  combination Emax: 0.299
[20]
  combination Emax: 0.625
